Assay results published in US9458101B2 (priority 2009, dated 2016).

What was measured:
[1] = system: A549 (Human lung carcinoma); assay: Cytotoxicity testing (MTS) on A549; format: cell-based
Procedure: (§1) Cell lines used were A549 (Human lung carcinoma), HeLa (Human cervical carcinoma), MCF-7 (Human mammary gland adenocarcinoma), CEM (Human T-lymphoblastoid from ALL (Acute lymphoblastic leukemia)), M010B (Human glioma), M006X (Human glioma) and Jurkat (Human T-cell leukemia).
(§2) A series of dilutions were prepared and a wavelength scan of the diluted solution was used to determine the wavelength of maximum absorbance for each compound. Five standardized drug concentrations were scanned at this pre-determined wavelength to obtain an estimate of the compound's extinction coefficient.
(§3) A primary MTS assay was used to test the optimal number of cells for cytotoxicity assays. Cells were trypsinized, counted and introduced into seven lanes of a 96-well plate at different cell numbers (eight replicates per lane). Optimal cell numbers were determined after 72 and 96 hours of growth and were used in subsequent cytotoxicity assays. […] Cell viability was determined using the Cell Titer 96 AQueous One Solution Cell Proliferation Assay (Promega, U.S.A.).
(§4) Fits were performed using a dose-response model ideal for data showing an initial response plateau, a transition region, and a final response plateau.
(§5) [formula] […] Itop is the response obtained at very low/no drug concentration. The data and all parameters were normalized to Itop−Ibot, a measure of the maximum effect of the drug.

[2] = system: MCF-7 (Human mammary gland adenocarcinoma); assay: Cytotoxicity testing (MTS) on MCF-7; format: cell-based
Procedure: as §1, §2, §3, §4, §5

[3] = system: HeLa (Human cervical carcinoma); assay: Cytotoxicity testing (MTS) on HeLa; format: cell-based
Procedure: as §1, §2, §3, §4, §5

[4] = system: CEM (Human T-lymphoblastoid from ALL); assay: Cytotoxicity testing (MTS) on CEM; format: cell-based
Procedure: as §1, §2, §3, §4, §5

[5] = system: M006X (Human glioma); assay: Cytotoxicity testing (MTS) on M006X; format: cell-based
Procedure: as §1, §2, §3, §4, §5

[6] = system: M010B (Human glioma); assay: Cytotoxicity testing (MTS) on M010B; format: cell-based
Procedure: as §1, §2, §3, §4, §5

[7] = system: A549, HeLa, MCF-7 and CEM cell lines; assay: Cytotoxicity, mean over A549, HeLa, MCF-7 and CEM cell lines; settings: for IC50 [log10 M] (mean logIC50): mean over A549, HeLa, MCF-7 and CEM cell lines; for cytotoxicity compared with colchicine: cytotoxicity assays; for average IC50 values compared with colchicine: average values of Table 3
Source text: as §1, §3, §5
Cytotoxicity screening was performed on a number of cell lines based on the cancer of origin and differing morphologies.

Compound | Fraction of cells that survive at the highest drug concentrations (Ibot) [1] | logIC50 [1] | Fraction of cells that survive at the highest drug concentrations (Ibot) [2] | logIC50 [2] | Fraction of cells that survive at the highest drug concentrations (Ibot) [3] | logIC50 [3] | Fraction of cells that survive at the highest drug concentrations (Ibot) [4] | logIC50 [4] | Fraction of cells that survive at the highest drug concentrations (Ibot) [5] | logIC50 [5] | Fraction of cells that survive at the highest drug concentrations (Ibot) [6] | logIC50 [6] | IC50 [log10 M] (mean logIC50) [7] | cytotoxicity compared with colchicine [7] | average IC50 values compared with colchicine [7] | IC50 ([7]; cytotoxicity experiments, most potent derivative)
COc1cc2c(c(O)c1OC)-c1ccc(OC)c(=O)cc1[C@@H](NC(C)=O)CC2 [Compound 3, N-[(7S)-1-hydroxy-2,3,10-trimethoxy-9-oxo-5,6,7,9-tetrahydrobenzo[α]heptalen-7-yl]acetamide] | 0.235 ± 0.048 | −5.29 ± 0.11 log10 M | 0.518 ± 0.033 | −5.25 ± 0.10 log10 M |  |  |  |  |  |  |  |  |  |  |  | 
COc1cc2c(c(OCc3ccc(Cl)cc3)c1OC)-c1ccc(OC)c(=O)cc1[C@@H](NC(C)=O)CC2 [Compound 15] | 0.288 ± 0.020 | −6.23 ± 0.08 log10 M | 0.381 ± 0.024 | −6.35 ± 0.12 log10 M | 0.039 ± 0.034 | −6.22 ± 0.09 log10 M | −0.016 ± 0.032 | −6.57 ± 0.11 log10 M | 0.058 ± 0.030 | −6.45 ± 0.13 log10 M | 0.382 ± 0.028 | −6.38 ± 0.14 log10 M | −6.34 ± 0.10 log10 M |  |  | 
COc1c(O)cc2c(c1OC)-c1ccc(OC)c(=O)cc1[C@@H](NC(C)=O)CC2 [Compound 50] |  |  |  |  |  |  |  |  |  |  |  |  |  | consistently the most effective |  | 
COc1cc2c(c(OC)c1OC)-c1ccc(OC)c(=O)cc1[C@@H](NC(C)=O)CC2 [Colchicine, N-[(7S)-1,2,3,10-tetramethoxy-9-oxo-5,6,7,9-tetrahydrobenzo[α]heptalen-7-yl]acetamide, reference compound] | 0.118 ± 0.042 |  | 0.377 ± 0.010 |  | 0.061 ± 0.048 |  | 0.016 ± 0.021 |  | 0.026 ± 0.005 |  | 0.107 ± 0.017 |  |  |  |  | 
COc1cc2c(c(OCc3cccc(Cl)c3)c1OC)-c1ccc(OC)c(=O)cc1[C@@H](NC(C)=O)CC2 [Compound 12, N-[(7S)-2,3,10-trimethoxy-9-oxo-1-((phenyl(3-chloro))methoxy)-5,6,7,9-tetrahydrobenzo[α]heptalen-7-yl]acetamide] | 0.245 ± 0.024 | −6.00 ± 0.04 log10 M | 0.390 ± 0.025 | −6.30 ± 0.12 log10 M | 0.040 ± 0.038 | −6.43 ± 0.15 log10 M | −0.015 ± 0.021 | −6.46 ± 0.09 log10 M | 0.051 ± 0.027 | −6.47 ± 0.12 log10 M | 0.328 ± 0.022 | −6.39 ± 0.11 log10 M | −6.30 ± 0.10 log10 M |  |  | 
COc1cc2c(c(OCc3ccccc3)c1OC)-c1ccc(OC)c(=O)cc1[C@@H](NC(C)=O)CC2 [Compound 10, N-[(7S)-2,3,10-trimethoxy-9-oxo-1-((phenyl)methoxy)-5,6,7,9-tetrahydrobenzo [α]heptalen-7-yl]acetamide] | 0.256 ± 0.032 | −5.77 ± 0.10 log10 M | 0.387 ± 0.016 | −6.27 ± 0.08 log10 M | 0.080 ± 0.026 | −6.17 ± 0.07 log10 M | 0.012 ± 0.022 | −6.45 ± 0.09 log10 M | 0.088 ± 0.022 | −6.42 ± 0.09 log10 M | 0.250 ± 0.031 | −5.66 ± 0.10 log10 M | −6.16 ± 0.08 log10 M |  |  | 
CCC(=O)Oc1c(OC)c(OC)cc2c1-c1ccc(OC)c(=O)cc1[C@@H](NC(C)=O)CC2 [Compound 4, N-[(7S)-1-((ethyl)carbonyloxy)-2,3,10-trimethoxy-9-oxo-5,6,7,9-tetrahydrobenzo[α]heptalen-7-yl]cetamide] | 0.332 ± 0.028 | −5.07 ± 0.04 log10 M | 0.399 ± 0.021 | −5.23 ± 0.07 log10 M | 0.058 ± 0.048 | −5.41 ± 0.13 log10 M | −0.031 ± 0.049 | −5.39 ± 0.11 log10 M |  |  |  |  | −5.27 ± 0.09 log10 M |  |  | 
COc1cc2c(c(OC(C)=O)c1OC)-c1ccc(OC)c(=O)cc1[C@@H](NC(C)=O)CC2 [Compound 2, N-[(7S)-2,3,10-trimethoxy-1-((methyl)carbonyloxy)-9-oxo-5,6,7,9-tetrahydrobenzo[α]heptalen-7-yl]acetamide] | 0.283 ± 0.022 | −5.89 ± 0.06 log10 M | 0.424 ± 0.019 | −6.32 ± 0.10 log10 M | 0.074 ± 0.031 | −6.48 ± 0.13 log10 M | 0.027 ± 0.021 | −6.65 ± 0.08 log10 M |  |  |  |  | −6.34 ± 0.09 log10 M |  |  | 
COc1cc2c(c(OC(C)C)c1OC)-c1ccc(OC)c(=O)cc1[C@@H](NC(C)=O)CC2 [Compound 7, N-[(7S)-1-(ethoxy-1-methyl)-2,3,10-trimethoxy-9-oxo-5,6,7,9-tetrahydrobenzo[α]heptalen-7-yl]acetamide] | 0.229 ± 0.014 | −7.66 ± 0.08 log10 M | 0.464 ± 0.009 | −8.10 ± 0.05 log10 M | 0.066 ± 0.022 | −8.25 ± 0.09 log10 M | 0.000 ± 0.014 | −8.49 ± 0.10 log10 M |  |  |  |  | −8.12 ± 0.08 log10 M | moderately better than colchicine | stronger than colchicine | 
CCCOc1cc2c(c(OC)c1OC)-c1ccc(SC)c(=O)cc1[C@@H](NC(C)=O)CC2 [Compound 43, N-[(7S)-3-propoxy-1,2-dimethoxy-10-methylsulfanyl-9-oxo-5,6,7,9-tetrahydrobenzo[α]heptalen-7-yl]acetamide] | 0.198 ± 0.024 | −8.76 ± 0.11 log10 M | 0.399 ± 0.015 | −8.71 ± 0.10 log10 M | 0.025 ± 0.025 | −8.66 ± 0.12 log10 M | 0.010 ± 0.014 | −8.55 ± 0.09 log10 M |  |  | 0.214 ± 0.022 | −8.51 ± 0.15 log10 M | −8.67 ± 0.11 log10 M | consistently the most effective | stronger than colchicine | 2.13 ± 0.77 nM
COc1c(O)cc2c(c1OC)-c1ccc(SC)c(=O)cc1[C@@H](NC(C)=O)CC2 [Compound 40, N-[(7S)-3-hydroxy-1,2-dimethoxy-3-hydroxy-10-methylsulfanyl-9-oxo-5,6,7,9-tetrahydrobenzo[α]heptalen-7-yl]acetamide] |  |  |  |  |  |  |  |  |  |  |  |  |  | consistently the most effective |  | 
C=CCOc1cc2c(c(OC)c1OC)-c1ccc(SC)c(=O)cc1[C@@H](NC(C)=O)CC2 [Compound 41, N-[(7S)-1,2-dimethoxy-10-methylsulfanyl-9-oxo-3-(prop(2-en)oxy)-5,6,7,9-tetrahydrobenzo[α]heptalen-7-yl]acetamide] | 0.243 ± 0.012 | −8.50 ± 0.11 log10 M | 0.472 ± 0.016 | −8.31 ± 0.12 log10 M | 0.039 ± 0.016 | −8.45 ± 0.11 log10 M | −0.050 ± 0.022 | −8.29 ± 0.10 log10 M |  |  |  |  | −8.39 ± 0.11 log10 M |  | stronger than colchicine | 
